The values below come from patent US20040097534A1, “Composition for the protection and regeneration of nerve cells containing berberine derivatives” (EUGENBIO INC., priority 2001, published 2004).

For assay [1], the system named is PC12 cells. The assay can be described thus: MTT assay, PC12 survival under dexamethasone (glucocorticoid) stress. The class given is cell-based, rat. On the procedure: (§1) Cell injuries under condition of serum deprivation-induced stress and oxidative stress were measured by MTT assay. For MTT assay, Cells were seeded into N2 medium in an amount of 7.5×10^3 cells, and then a neurotoxin or a nerve growth factor was added thereto to differentiate the cells and then 0.1 volume of 4 mg/ml MTT was further added. The mixture was stored at 37° C. for 3-4 hours. After 100 μl of solubilization buffer was added to the mixture and then stored for 24 hours, O.D. values were measured by ELISA assay.
Glucocorticoids are hormones secreted from the adrenal glands, and involve in a variety of metabolic processes including glycometabolism. In particular, stress causes release of glucocorticoids to reduce cell divisions of neuronal stem cells in the brain and induce apoptosis of nerve cells. Therefore, PC12 cells were treated with dexamethasone, a glucocorticoid derivative, to examine the effect of berberine against apoptosis of nerve cells. 3 hours after treatment with berberine, dexamethasone (1) was added to a culture solution and incubated for 2 days to induce neuroregeneration (see, Table 5 and FIG. 5b).
On the technique in general: Tetrazolium dyes change colour on reduction, which living cells bring about.

For assay [2], the system named is pyramidal nerve cells in the hippocampal CA1 region. The assay can be described thus: Forebrain ischemia induced by 4-vessel occlusion (4-VO), viable CA1 cells. The assay is classed as in vivo, Wister male white rats. As to conditions: berberine i.p. 0 and 90 minutes after ischemia induction, 1 week after; sham 308±6.6, saline 28±3.8. On the procedure:
A 4-VO model was prepared by a modified method of Pulsinelli, et al (Ann. Neurol. 11, 491-498(1982)). Wister male white rats weighing about […] were anesthetized with 5% isoflurane contained in a mixture of nitrogen and oxygen (70:30), and then surgery was performed under anesthetization while maintaining the concentration of isoflurane at 1.5%.
First, the throat region was incised, and then silicone tube rings were inserted into common carotid arteries to perform reperfusion after ischemia induction. Upon inducing ischemia, in order to block blood circulation through microvessels, a thread was penetrated so that the trachea, esophagus, external jugular veins and common carotid arteries of the rat were positioned to the front, and cervical and paravertebral muscles of the rat were positioned to the back. Thereafter, the wounds were sutured with operating clips.
Next, the head of the rat was fixed on a stereotaxic apparatus to operate on the occiput, and then the tail was fixed so that it descended downwardly at an angle of 30°. […]
While body temperatures of the rats were measured at intervals of 30 minutes for 2 hours, and thereafter measured at intervals of 1 hour for 3 hours after ischemia induction, the rats were maintained at 37±0.5° C. using a temperature-controlling heater. The body temperature was measured by inserting a probe into the rectum to a depth of 6 cm. […]

Assay [3] deals with PC12 cells. The assay can be described thus: MTT assay, PC12 survival under serum deprivation-induced stress. The class given is cell-based, rat. As to conditions: for O.D.: 2 days; for Average (O.D. relative to RPMI): RPMI = 100%. On the procedure: as §1
NGF, increasing cell survival and inducing cell differentiation, was used as a positive control. After the cells were treated with berberine (0.25˜3 μg/ml), the cells were cultured for 2 days to induce nerve regeneration (see, Table 3 and FIG. 5a).

In the next assay the test system is SH-SY5Y cells. The assay can be described thus: MTT assay, SH-SY5Y survival under serum deprivation-induced stress. The assay is classed as cell-based, human. As to conditions: for O.D.: 2 days; for Average (O.D. relative to N2): N2 = 100%. On the procedure: as §1
In order to prepare a stroke-like cell model using SH-SY5Y, the cells were cultured under serum deprivation. […] Retinoic acid, which induces the differentiation of SH-SY5Y as a cell differentiation factor, was used as a positive control. 3 hours before depriving serum, the cells were treated with berberine (0.25˜3 μg). The cells were cultured in chemically defined media (N2) for 2 days to induce nerve regeneration (see, Table 2 and FIG. 4a).

[4] abbreviates: N2 + dexamethasone + berberine 0.25 μg/ml.
Setting [5] is: N2 + dexamethasone + berberine 1.5 μg/ml.
[6] abbreviates: N2 + dexamethasone + berberine 3 μg/ml.

With `COc1ccc2cc3[n+](cc2c1OC)CCc1cc2c(cc1-3)OCO2` [Berberine, 7,8,13,13a-tetradihydro-9,10-dimethoxy-2,3-(methylenedioxy) berbinium], the “Average (O.D. relative to dexamethasone alone)” value worked out at 111% in the assay with PC12 cells [1] (setting [4]), 127% in the assay with PC12 cells [1] (setting [5]) and 132% in the assay with PC12 cells [1] (setting [6]). Moreover, the O.D. with PC12 cells [1] (setting [4]) was 0.214; in the assay on PC12 cells [1] (setting [5]), 0.245; in the assay with PC12 cells [1] (setting [6]), 0.253; with PC12 cells [3] (RPMI + berberine 0.25 μg/ml), 0.203; in the assay on PC12 cells [3] (RPMI + berberine 1.5 μg/ml), 0.239; in the assay with PC12 cells [3] (RPMI + berberine 3 μg/ml), 0.262. Besides, the O.D. was determined as 0.076 in the assay on SH-SY5Y cells (N2 + berberine 0.25 μg/ml), 0.118 in the assay on SH-SY5Y cells (N2 + berberine 1.5 μg/ml) and 0.104 in the assay with SH-SY5Y cells (N2 + berberine 3 μg/ml). In the assay with PC12 cells [1] (dexamethasone stress, 2 days), the “cell survival rate increase” value is reported as “about 1.3 times”. The “density of viable cells in hippocampal CA1” value in assay [2] came to 257±9.6 cell/mm^2. Moreover, the “Average (O.D. relative to RPMI)” value is recorded as 121% with PC12 cells [3] (RPMI + berberine 0.25 μg/ml), 142% in the assay with PC12 cells [3] (RPMI + berberine 1.5 μg/ml) and 156% in the assay on PC12 cells [3] (RPMI + berberine 3 μg/ml). Moreover, the “cell survival rate versus control group” value is recorded as 1.5 times with PC12 cells [3] (serum deprivation, berberine (1.5˜3 μg/ml elsewhere in the source)) and “two times higher” in the assay on SH-SY5Y cells (serum deprivation, berberine (1.5 μg/ml elsewhere in the source)). Further, the “Average (O.D. relative to N2)” value in the assay with SH-SY5Y cells (N2 + berberine 0.25 μg/ml) came out at 113%; with SH-SY5Y cells (N2 + berberine 1.5 μg/ml), 177%; in the assay with SH-SY5Y cells (N2 + berberine 3 μg/ml), 155%. In the assay with SH-SY5Y cells (serum deprivation, berberine 3 μg/ml compared with 1.5 μg/ml), the cell survival result is listed as “somewhat decreased”.
